We go through 15 molecules from PMC2693028 (ChemMedChem, 2008).

The test system of data set [1] is ENR in E. coli. The settings on record: cited from earlier work.
Data set [2] deals with PfENR. The following applies: cited from earlier work.
Data set [3] relates to ΔANR B. anthracis. The settings on record: cited from earlier work.
Data set [4] relates to ΔANR B. anthracis. The data set is described as follows: microbe, parasite or virus in culture. It is filed as cell-based, Bacillus anthracis.
For data set [5], the system named is ENR in S. aurues. The settings on record: cited from earlier work.
Data set [6] has as its system Pseudomonas aeruginosa (ATCC strain 27853). As to the kind of experiment: microbe, parasite or virus in culture. It is filed as cell-based. The following applies: ATCC27853.
In data set [7] the test system is Klebsiella pneumoniae (ATCC strain 700603). The data set is described as follows: microbe, parasite or virus in culture. It is filed as cell-based. The following applies: for MBC / MIC: Klebsiella pneumoniae, ATCC700603.
The test system of data set [8] is Enterococcus fecalis (ATCC strain 29212). As to the kind of experiment: microbe, parasite or virus in culture. It is filed as cell-based. The settings on record: for MBC / MIC: Enterococcus, ATCC29212.
Data set [9] deals with Staphylococcus aureus (ATCC strain 29213). As to the kind of experiment: microbe, parasite or virus in culture. The format is cell-based. The following applies: ATCC29213|MSSA.
Data set [10] concerns MHS. The data set is described as follows: cells. It is filed as cell-based. The settings on record: read-out: EC50 against MHS.
In data set [11] the test system is Escherchia coli (ATCC strain 25922). The data set is described as follows: microbe, parasite or virus in culture. The format is cell-based. The following applies: for MBC / MIC: Escherichia coli, ATCC25922.
For data set [12], the system named is methicillin–resistant Staphylococcus aureus (ATCC strain 43300). As to the kind of experiment: microbe, parasite or virus in culture. The format is cell-based.
For data set [13], the system named is Sterne strain B. anthracis. As to the kind of experiment: microbe, parasite or virus in culture. The format is cell-based, Bacillus anthracis. The following applies: for MBC / MIC: Bacillus anthracis.
Data set [14] deals with Enoyl reducase (ENR) from Bacillus anthracis (BaENR) (Bacillus anthracis, UniProt A0A6L8PBX8). The data set is described as follows: biochemical. The following applies: for inhibition at 1 µM: read-out: % inhibition at 1μM.
Enoyl reducase (ENR) from Bacillus anthracis (BaENR), sequence (A0A6L8PBX8 1-256): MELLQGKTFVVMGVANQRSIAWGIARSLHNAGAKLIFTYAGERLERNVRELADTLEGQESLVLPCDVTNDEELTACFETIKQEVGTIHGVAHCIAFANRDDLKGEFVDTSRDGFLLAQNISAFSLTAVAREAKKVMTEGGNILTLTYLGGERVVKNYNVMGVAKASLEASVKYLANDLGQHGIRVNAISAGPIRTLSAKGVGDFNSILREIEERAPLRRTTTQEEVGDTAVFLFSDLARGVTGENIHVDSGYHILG
The subject of data set [15] is HeLa cells. The data set is described as follows: cells. The settings on record: Homo sapiens, read-out: EC50 against HeLa cells.
For data set [16], the system named is vancomycin–resistant Enterococcus (VRE) (ATCC strain 51299). As to the kind of experiment: microbe, parasite or virus in culture. The format is cell-based. The settings on record: for MBC / MIC: Enterococcus, ATCC51299|VRE.
In data set [17] the test system is Listeria monocytogenes (10403S). As to the kind of experiment: microbe, parasite or virus in culture. The format is cell-based. The following applies: for MBC / MIC: Listeria monocytogenes.
Data set [18] has as its system HeLa cells. The settings on record: human.
Setting [19] is: Staphylococcus aureus, ATCC43300|MRSA.

Converted amounts (≈) assume the structure as drawn. “And” between values parts separate entries of the source, which are not always exact repeats. Identical values can stand only once. Like-named read-outs stand apart in the source and are kept apart here.

One may read the IC50 as the concentration needed to halve the response being measured. Consider `Oc1cc(Cl)ccc1Oc1ccc(Cl)cc1Cl` [Triclosan], for which the IC50 was 7.25 µM in data set [1], 73 nM in data set [2] and 70 nM in data set [5]. Also, the MIC in [3] and in data set [4] (Bacillus anthracis) was 3.1 µg/mL (≈ 10.7 µM) each time.

What is called EC50 is the concentration needed to bring the measured effect to its halfway point. Consider `O=[N+]([O-])c1ccc(Oc2ccc(Cl)cc2O)c(Cl)c1` [Compound 6, 5-Chloro-2-(2-chloro-4-nitrophenoxy)phenol], for which the MIC in data set [6] was > 25 µg/mL; in data set [7], 1.8 ± 0.4 µg/mL (≈ 6 µM); in data set [8], 4.4 ± 0.8 µg/mL (≈ 14.7 µM); in data set [9], 0.1 ± 0.1 µg/mL (≈ 0.333 µM); in data set [11], 0.3 ± 0.1 µg/mL (≈ 1 µM); in data set [12] it was 0.3 ± 0.3 µg/mL (≈ 1 µM). Besides, the MIC turned out to be 0.3 µg/mL (≈ 1 µM) in data set [12] (setting [19]), 1.9 ± 0.3 µg/mL (≈ 6.33 µM) in data set [13], 5.7 ± 0.6 µg/mL (≈ 19 µM) in data set [16] and 2.8 ± 0.3 µg/mL (≈ 9.33 µM) in data set [17]. Besides, the MBC in data set [7] came to 12.5 µg/mL (≈ 41.7 µM); in data set [8], 31.3 ± 6.3 µg/mL (≈ 104 µM); in [9], 2.9 ± 1.2 µg/mL (≈ 9.66 µM); in data set [11], 12.5 µg/mL (≈ 41.7 µM); in data set [4] (Bacillus anthracis), 3.1 ± 1.1 µg/mL (≈ 10.3 µM); in data set [12] (setting [19]), 0.4 ± 0.1 µg/mL (≈ 1.33 µM). Also, the MBC in data set [13] is 3.9 ± 0.8 µg/mL (≈ 13 µM); in data set [16], 37.5 ± 12.5 µg/mL (≈ 125 µM); in data set [17] it was 14.1 ± 3.9 µg/mL (≈ 47 µM). Moreover, the EC50 in [10] came to 9.9 µg/mL (≈ 33 µM); in data set [15] it was 29.3 µg/mL (≈ 97.6 µM). Besides, the IC50 in data set [14] (IC50) was 290 nM and 300 nM.

For the molecule `CCCc1ccc(Oc2ccc([N+](=O)[O-])cc2Cl)c(O)c1` [Compound 11, 2-(2-Chloro-4-nitrophenoxy)-5-propylphenol], the MIC in data set [6] was > 25 µg/mL; in [7], 1.8 ± 0.9 µg/mL (≈ 5.85 µM); in [8] it was 4.4 ± 0.5 µg/mL (≈ 14.3 µM); in data set [9] it was 0.1 ± 0.1 µg/mL (≈ 0.325 µM); in data set [11], 0.3 ± 0.2 µg/mL (≈ 0.975 µM); in data set [4], 2.2 ± 0.0 µg/mL (≈ 7.15 µM). Further, the MIC in data set [4] (Bacillus anthracis) is 1.9 to 3.1 µg/mL (≈ 6.17 to 10.1 µM); in data set [12] it was 0.3 ± 0.3 µg/mL (≈ 0.975 µM); in [12] (setting [19]), 0.3 µg/mL (≈ 0.975 µM); in data set [13], 1.9 µg/mL (≈ 6.17 µM); in data set [16], 5.7 ± 0.3 µg/mL (≈ 18.5 µM); in data set [17], 2.8 ± 0.9 µg/mL (≈ 9.1 µM). The MBC/MIC in data set [7] is recorded as 4.7; in [8], 2.9; in [11], 4.5; in data set [4] it was 1.8; in data set [12], 1.9; in data set [13] it was 2.1. The MBC/MIC in [16] is listed as 2.7; in data set [17], 5.0. Besides, the MBC came to 8.3 ± 2.1 µg/mL (≈ 27 µM) in [7]; 12.5 µg/mL (≈ 40.6 µM) in [8]; 2.9 ± 1.2 µg/mL (≈ 9.42 µM) in data set [9]; 1.2 ± 0.4 µg/mL (≈ 3.9 µM) in data set [11]; 3.9 ± 0.8 µg/mL (≈ 12.7 µM) in [4] (Bacillus anthracis); 0.5 ± 0.2 µg/mL (≈ 1.62 µM) in data set [12] (setting [19]). Besides, the MBC in data set [13] was determined as 3.9 ± 0.8 µg/mL (≈ 12.7 µM); in [16] it was 15.6 ± 3.1 µg/mL (≈ 50.7 µM); in data set [17], 14.1 ± 3.9 µg/mL (≈ 45.8 µM). Further, the figures for the EC50 in [10] and in data set [15] were 22.6 µg/mL (≈ 73.4 µM) and 41.4 µg/mL (≈ 135 µM), respectively. For the same molecule, the EC50/MIC ratio in [18] is on record as 15–20. In [14] (IC50), the IC50 stood at 500 nM.

As to `O=C(O)c1cn(C2CC2)c2cc(N3CCNCC3)c(F)cc2c1=O` [Cipro, reference compound], the MIC in data set [6] worked out at 0.3 ± 0.1 µg/mL (≈ 0.905 µM); in data set [7] it was 0.5 ± 0.1 µg/mL (≈ 1.51 µM); in data set [8], 0.7 ± 0.1 µg/mL (≈ 2.11 µM); in data set [9] it was 0.4 µg/mL (≈ 1.21 µM); in data set [11], 0.1 µg/mL (≈ 0.302 µM); in [4] (Bacillus anthracis), 0.1 µg/mL (≈ 0.302 µM). Further, the MIC in data set [12] (setting [19]) stood at 0.5 ± 0.2 µg/mL (≈ 1.51 µM); in data set [13], 0.1 µg/mL (≈ 0.302 µM); in data set [16] it was 0.6 ± 0.2 µg/mL (≈ 1.81 µM); in [17] it was 0.9 ± 0.3 µg/mL (≈ 2.72 µM).

In turn, `Cc1ccc(S(=O)(=O)Nc2ccc(Oc3ccc(Cl)cc3O)cc2)cc1` [Compound 22, 4-(4-Chloro-2-hydroxyphenoxy)-1-(4 methylphenylsulphonamido) benzene] yielded an MIC in data set [4] (Bacillus anthracis) of 4.9 µg/mL (≈ 12.6 µM). In data set [14] (IC50), the IC50 was > 12000 nM.

Usually inhibition stands for how much of the control response was suppressed. Turning to `CCCc1ccc(Oc2ccc(C(C)O)cc2)c(O)c1` (centres unmarked) [Compound 42, 2-[4-(1-Hydroxyethyl)phenoxy]-5-propylphenol], the MIC in data set [4] (Bacillus anthracis) came to 54.5 µg/mL (≈ 200 µM). In data set [14], the inhibition at 1 µM is 17.1%.

`CCCc1ccc(Oc2cccc(C(F)(F)F)c2)c(O)c1` [Compound 46, 5-Propyl-2-(3-trifluoromethylphenoxy)phenol] returned an MIC in data set [4] (Bacillus anthracis) of 7.4 µg/mL (≈ 25 µM). This molecule returned an IC50 in [14] of 1240 nM.

In the case of `Oc1ccc(Oc2ccccc2)c(O)c1` [Compound 1, 4-Phenoxybenzene-1,3-diol], the MIC in [4] (Bacillus anthracis) is 64 µg/mL (≈ 317 µM). The IC50 in data set [14] (IC50) is 6300 ± 400 nM.

In turn, `CC(=O)Nc1ccccc1Oc1ccc(Cl)cc1O` [Compound 19, N-[2-(4-Chloro-2-hydroxy-phenoxy)phenyl]acetamide] gave an MIC in [4] (Bacillus anthracis) of 111 µg/mL (≈ 400 µM). In addition, the inhibition at 1 µM in data set [14] came out at 0%.

The molecule `CCCc1ccc(Oc2ccc(S(C)(=O)=O)cc2)c(O)c1` [Compound 44, 2-(4-Methanesulfonylphenoxy)-5-propylphenol] showed an MIC in data set [4] (Bacillus anthracis) of 61.3 µg/mL (≈ 200 µM). This molecule also showed a 50% inhibitory concentration (IC50) in data set [14] (IC50) of 2200 ± 300 nM.

Consider `CCCc1ccc(Oc2ccc(C#N)cc2Cl)c(O)c1` [Compound 12, 3-Chloro-4-(2-hydroxy-4-propylphenoxy)benzonitrile], for which the MIC in data set [4] (Bacillus anthracis) came to 1.8 µg/mL (≈ 6.26 µM). Besides, the IC50 in [14] (IC50) is > 800 nM.

In turn, `CCCc1ccc(Oc2ccccc2)c(O)c1` [Compound 27, 2-Phenoxy-5-propylphenol] displayed an MIC in [4] (Bacillus anthracis) of 22.8 µg/mL (≈ 99.9 µM). The IC50 in [14] (IC50) was > 800 nM.

In data set [4] (Bacillus anthracis), `CCCc1ccc(Oc2cccc(N(C)C)c2)c(O)c1` [Compound 45, 2-(3-Dimethylaminophenoxy)-5-propylphenol] registered an MIC of 13.6 µg/mL (≈ 50.1 µM). Besides, the inhibition at 1 µM in data set [14] is 12.6%.

On to `CC(=O)Nc1ccc(Oc2ccc(Cl)cc2O)cn1` [Compound 24, N-[5-(4-Chloro-2-hydroxyphenoxy)-pyridin-2-yl]acetamide], for which, in [4] (Bacillus anthracis), the MIC was > 112 µg/mL. In data set [14] (IC50), this molecule showed an IC50 of 4100 nM.

Take `Oc1cc(CN2CCCCC2)ccc1Oc1ccccc1` [Compound 30, 2-Phenoxy-5-piperidin-1-ylmethylphenol]: the MIC in data set [4] (Bacillus anthracis) was > 113 µg/mL. Moreover, the inhibition at 1 µM in data set [14] is 0%.
